Test results as given in PubChem BioAssay (NCI).
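These data come from cells grown in 96-well plates and exposed to compound for 48 hours at five concentrations. Definition used: TGI = concentration required for complete inhibition of growth.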

How the values were obtained:
Experiment in all cases: NCI tumour cell line growth inhibition, 48 h
MALME-3M melanoma = system: MALME-3M melanoma
LOX IMVI melanoma = system: LOX IMVI melanoma
K-562 leukemia = system: K-562 leukemia
UO-31 renal = system: UO-31 renal
NCI-H226 lung = system: NCI-H226 lung
SR leukemia = system: SR leukemia
COLO 205 colon = system: COLO 205 colon
SF-539 CNS = system: SF-539 CNS
SK-MEL-28 melanoma = system: SK-MEL-28 melanoma
SNB-19 CNS = system: SNB-19 CNS
MDA-N = system: MDA-N
A549 NSCLC = system: A549 NSCLC
BT-549 breast = system: BT-549 breast
HT29 colon = system: HT29 colon
SK-MEL-2 melanoma = system: SK-MEL-2 melanoma
T-47D breast = system: T-47D breast
CAKI-1 renal = system: CAKI-1 renal
RPMI-8226 leukemia = system: RPMI-8226 leukemia
TK-10 renal = system: TK-10 renal
SNB-78 CNS = system: SNB-78 CNS

SMILES	TGI (MALME-3M melanoma)	TGI (LOX IMVI melanoma)	TGI (K-562 leukemia)	TGI (UO-31 renal)	TGI (NCI-H226 lung)	TGI (SR leukemia)	TGI (COLO 205 colon)	TGI (SF-539 CNS)	TGI (SK-MEL-28 melanoma)	TGI (SNB-19 CNS)	TGI (MDA-N)	TGI (A549 NSCLC)	TGI (BT-549 breast)	TGI (HT29 colon)	TGI (SK-MEL-2 melanoma)	TGI (T-47D breast)	TGI (CAKI-1 renal)	TGI (RPMI-8226 leukemia)	TGI (TK-10 renal)	TGI (SNB-78 CNS)
CNC(=S)NNC1=NCCCCN1	> 100 µM	> 100 µM	> 100 µM	> 100 µM	> 100 µM	> 100 µM	> 100 µM	> 100 µM	> 100 µM	> 100 µM	> 100 µM	> 100 µM	> 100 µM	> 100 µM	> 100 µM	> 100 µM	> 100 µM	> 100 µM	> 100 µM	–
CCCCCNC1=CC(=O)c2ccccc2C1=O	> 95.3 µM	> 57 µM	> 100 µM	> 88.6 µM	> 82.5 µM	> 100 µM	> 100 µM	41 µM	> 100 µM	82.5 µM	> 100 µM	> 100 µM	46 µM	> 100 µM	53.6 µM	> 82.6 µM	80.6 µM	> 100 µM	52.3 µM	–
CO[C@H](c1ccccc1)[C@H](O)[C@](O)(c1ccccc1)P(=O)(OC)OC	> 100 µM	> 100 µM	> 100 µM	> 100 µM	> 100 µM	> 100 µM	> 100 µM	> 100 µM	> 100 µM	> 100 µM	> 100 µM	> 100 µM	> 100 µM	> 100 µM	> 100 µM	> 100 µM	> 100 µM	> 100 µM	> 100 µM	–
COc1ccc(CCN(C)C(=O)CC(C#N)(c2ccccc2)c2ccc(OC)c(OC)c2)cc1OC (configuration not stated)	> 100 µM	> 100 µM	> 100 µM	> 100 µM	> 100 µM	99.3 µM	> 100 µM	> 100 µM	> 100 µM	> 100 µM	> 100 µM	> 100 µM	> 100 µM	> 100 µM	> 100 µM	> 100 µM	> 100 µM	> 100 µM	> 100 µM	–
COc1cc(-c2c(C)c(C)nc(OC)c2C#N)cc(OC)c1OC	> 100 µM	–	> 100 µM	> 100 µM	> 100 µM	–	> 100 µM	> 100 µM	> 100 µM	> 100 µM	–	> 100 µM	–	> 100 µM	> 100 µM	–	–	> 100 µM	> 100 µM	> 100 µM
Cc1cc(C)n(-c2c(O)ccc(O)c2-n2nc(C)cc2C)n1	> 100 µM	> 100 µM	> 100 µM	> 100 µM	–	–	> 100 µM	> 100 µM	> 100 µM	> 100 µM	–	> 100 µM	–	> 100 µM	> 100 µM	–	> 100 µM	> 100 µM	> 100 µM	> 100 µM
NC(=O)NC(=O)c1ccc(NC(=O)CBr)cc1	3.96 µM	2.26 µM	3.92 µM	2.78 µM	10.2 µM	1.01 µM	2.99 µM	6.35 µM	13.1 µM	> 49.8 µM	5 µM	> 32.6 µM	4.7 µM	3.42 µM	4.61 µM	4.01 µM	1.52 µM	3.59 µM	2.68 µM	–
CC1(C)OC(=O)CC12CCN(Cc1ccccc1)CC2	> 100 µM	> 100 µM	> 100 µM	> 100 µM	> 100 µM	> 100 µM	> 100 µM	> 100 µM	> 100 µM	> 100 µM	> 100 µM	> 100 µM	> 100 µM	> 100 µM	> 100 µM	> 100 µM	> 100 µM	> 100 µM	> 100 µM	–
COc1c(O)cc2c(c1O)C1O[C@H](CO)C(O)[C@H](O)[C@H]1OC2=O (some centres not stated)	> 100 µM	> 100 µM	> 100 µM	–	> 100 µM	> 100 µM	> 100 µM	> 100 µM	> 100 µM	> 100 µM	> 100 µM	> 100 µM	> 100 µM	> 100 µM	> 100 µM	> 100 µM	> 100 µM	> 100 µM	> 100 µM	–
COC(=O)[C@]12CSC[C@H]1C[C@H](c1ccc(N(C)C)cc1)N2	> 100 µM	> 100 µM	> 100 µM	> 100 µM	> 100 µM	> 100 µM	> 100 µM	> 100 µM	> 100 µM	> 100 µM	> 100 µM	> 100 µM	> 100 µM	–	> 100 µM	> 100 µM	> 100 µM	> 31.6 µM	> 100 µM	–
CN(CCO)c1nc2c(c(=O)[nH]1)CNCC2	> 100 µM	> 100 µM	> 100 µM	> 100 µM	> 100 µM	> 100 µM	> 100 µM	> 100 µM	> 100 µM	> 100 µM	–	> 100 µM	–	> 100 µM	> 100 µM	–	> 100 µM	> 100 µM	> 100 µM	> 100 µM
Nc1ccc(C(=O)NN2C(=O)C(Cl)C2c2ccccc2O)cc1 (configuration not stated)	> 100 µM	> 100 µM	> 100 µM	75.2 µM	> 100 µM	–	> 100 µM	> 100 µM	> 100 µM	> 100 µM	–	> 100 µM	–	> 100 µM	> 100 µM	–	> 100 µM	> 100 µM	> 100 µM	> 100 µM
Cn1c2cccc3nnc4cccc(c4c32)n1C	> 100 µM	> 100 µM	> 100 µM	> 100 µM	> 100 µM	–	> 100 µM	> 100 µM	> 100 µM	> 100 µM	–	> 100 µM	–	> 100 µM	> 100 µM	–	> 100 µM	> 100 µM	–	> 100 µM
